{
  "source": "ChEMBL document CHEMBL5523740",
  "about": "“Discovery of Potent and Selective c-Met Degraders for Hepatocellular Carcinoma Treatment” (J Med Chem, 2024)",
  "key": {"MHCC97H [1]": {"system": "MHCC97H", "assay": "Antiproliferative activity against human MHCC97H cells incubated for 24 hrs by CCK8 assay", "format": "functional, cell-based"}, "[2]": {"target": "Hepatocyte growth factor receptor (Homo sapiens, UniProt P08581)", "sequence (P08581 whole entry)": "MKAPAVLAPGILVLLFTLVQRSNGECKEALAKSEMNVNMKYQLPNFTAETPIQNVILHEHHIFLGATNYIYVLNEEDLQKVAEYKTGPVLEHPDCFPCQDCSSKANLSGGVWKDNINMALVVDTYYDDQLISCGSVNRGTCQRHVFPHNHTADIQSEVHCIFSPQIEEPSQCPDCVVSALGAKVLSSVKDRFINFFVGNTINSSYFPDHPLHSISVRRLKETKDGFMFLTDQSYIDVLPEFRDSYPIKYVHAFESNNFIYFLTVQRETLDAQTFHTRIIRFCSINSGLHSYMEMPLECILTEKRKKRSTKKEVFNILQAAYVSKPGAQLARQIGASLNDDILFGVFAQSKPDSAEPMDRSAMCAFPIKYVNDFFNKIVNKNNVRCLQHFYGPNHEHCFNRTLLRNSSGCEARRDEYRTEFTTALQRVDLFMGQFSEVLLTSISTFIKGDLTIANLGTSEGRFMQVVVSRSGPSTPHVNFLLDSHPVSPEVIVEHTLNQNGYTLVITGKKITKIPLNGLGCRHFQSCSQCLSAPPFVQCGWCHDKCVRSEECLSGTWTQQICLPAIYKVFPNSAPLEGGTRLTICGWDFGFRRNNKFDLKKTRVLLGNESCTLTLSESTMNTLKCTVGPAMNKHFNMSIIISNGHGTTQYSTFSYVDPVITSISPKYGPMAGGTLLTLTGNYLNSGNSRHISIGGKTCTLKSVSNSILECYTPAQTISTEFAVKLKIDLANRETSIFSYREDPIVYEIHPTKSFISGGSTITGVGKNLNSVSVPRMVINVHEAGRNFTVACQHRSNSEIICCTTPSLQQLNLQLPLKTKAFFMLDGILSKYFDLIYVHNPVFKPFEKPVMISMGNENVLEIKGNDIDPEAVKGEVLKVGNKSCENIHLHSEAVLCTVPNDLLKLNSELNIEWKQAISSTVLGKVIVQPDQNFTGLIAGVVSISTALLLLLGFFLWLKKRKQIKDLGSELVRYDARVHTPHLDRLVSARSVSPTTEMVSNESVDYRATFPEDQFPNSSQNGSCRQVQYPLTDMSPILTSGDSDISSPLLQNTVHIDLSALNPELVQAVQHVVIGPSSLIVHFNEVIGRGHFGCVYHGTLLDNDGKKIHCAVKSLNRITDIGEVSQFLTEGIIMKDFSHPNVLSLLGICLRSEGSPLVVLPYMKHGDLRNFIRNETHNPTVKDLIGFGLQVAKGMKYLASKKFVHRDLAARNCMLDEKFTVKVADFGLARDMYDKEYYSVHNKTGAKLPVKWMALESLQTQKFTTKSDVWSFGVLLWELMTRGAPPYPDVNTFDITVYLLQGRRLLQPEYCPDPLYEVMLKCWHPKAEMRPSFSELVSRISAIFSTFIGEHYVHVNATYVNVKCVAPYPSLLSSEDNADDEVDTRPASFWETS", "assay": "Induction of c-Met degradation in human MHCC97H cells at 1 uM incubated for 24 hrs by Western blotting analysis", "format": "cell-based"}, "MHCC97H [3]": {"system": "MHCC97H", "assay": "Induction of cell cycle arrest in human MHCC97H cells assessed as accumulation of cells at G2 phase at 3 nM incubated for 24 hrs by PI staining based flow cytometry analysis (reference value: 19.1%)", "format": "functional"}, "MHCC97H [4]": {"system": "MHCC97H", "assay": "Induction of cell cycle arrest in human MHCC97H cells assessed as accumulation of cells at G1 phase at 10 nM incubated for 24 hrs by PI staining based flow cytometry analysis (reference value: 70.4%)", "format": "functional"}, "MHCC97H [5]": {"system": "MHCC97H", "assay": "Induction of cell cycle arrest in human MHCC97H cells assessed as accumulation of cells at G2 phase at 10 nM incubated for 24 hrs by PI staining based flow cytometry analysis (reference value: 19.1%)", "format": "functional"}, "MHCC97H [6]": {"system": "MHCC97H", "assay": "Induction of cell cycle arrest in human MHCC97H cells assessed as accumulation of cells at G1 phase at 100 nM incubated for 24 hrs by PI staining based flow cytometry analysis (reference value: 70.4%)", "format": "functional"}, "MHCC97H [7]": {"system": "MHCC97H", "assay": "Induction of cell cycle arrest in human MHCC97H cells assessed as accumulation of cells at G2 phase at 100 nM incubated for 24 hrs by PI staining based flow cytometry analysis (reference value: 19.1%)", "format": "functional"}, "MHCC97H [8]": {"system": "MHCC97H", "assay": "Induction of apoptosis in human MHCC97H cells assessed as viable cells at 3 nM incubated for 24 hrs by Annexin-V-FITC/PI staining based flow cytometry analysis (reference value: 86.3%)", "format": "functional", "conditions": "read-out: Activity"}, "MHCC97H [9]": {"system": "MHCC97H", "assay": "Induction of apoptosis in human MHCC97H cells assessed as late apoptotic cells at 3 nM incubated for 24 hrs by Annexin-V-FITC/PI staining based flow cytometry analysis (reference value: 4.24%)", "format": "functional"}, "MHCC97H [10]": {"system": "MHCC97H", "assay": "Induction of apoptosis in human MHCC97H cells assessed as necrotic cells at 10 nM incubated for 24 hrs by Annexin-V-FITC/PI staining based flow cytometry analysis (reference value: 1.77%)", "format": "functional"}, "MHCC97H [11]": {"system": "MHCC97H", "assay": "Induction of apoptosis in human MHCC97H cells assessed as viable cells at 100 nM incubated for 24 hrs by Annexin-V-FITC/PI staining based flow cytometry analysis (reference value: 86.3%)", "format": "functional", "conditions": "read-out: Activity"}, "MHCC97H [12]": {"system": "MHCC97H", "assay": "Induction of apoptosis in human MHCC97H cells assessed as early apoptotic cells at 100 nM incubated for 24 hrs by Annexin-V-FITC/PI staining based flow cytometry analysis (reference value: 7.70%)", "format": "functional"}, "MHCC97H [13]": {"system": "MHCC97H", "assay": "Antitumor activity against human MHCC97H cells xenografted in BALB/c mouse assessed as tumor growth inhibition at 10 mg/kg, ip qd for 22 days and measured every 2 days", "format": "functional", "conditions": "528 h, time 22 day, read-out: TGI"}, "MHCC97H [14]": {"system": "MHCC97H", "assay": "Antitumor activity against human MHCC97H cells xenografted in BALB/c mouse assessed as reduction in tumor positive cells at 10 mg/kg, ip qd for 22 days and measured every 2 days by Ki67 staining based analysis", "format": "functional, organism-based", "conditions": "time 22.0 day"}, "MHCC97H [15]": {"system": "MHCC97H", "assay": "Antitumor activity against human MHCC97H cells xenografted in BALB/c mouse assessed as tumor growth inhibition at 20 mg/kg, po qd for 22 days and measured every 2 days by Ki67 staining based analysis", "format": "functional, organism-based", "conditions": "time 22.0 day"}, "[16]": {"assay": "Toxicity in BALB/c mouse xenografted with human MHCC97H cells assessed as kidney lesions at 10 mg/kg, ip qd for 22 days and measured every 2 days by H and E staining based assay", "format": "organism-based", "conditions": "in vivo, 528 h, time 22 day"}, "[17]": {"assay": "Toxicity in BALB/c mouse xenografted with human MHCC97H cells assessed as spleen lesions at 10 mg/kg, ip qd for 22 days and measured every 2 days by H and E staining based assay", "format": "organism-based", "conditions": "in vivo, 528 h, time 22 day"}, "[18]": {"assay": "Toxicity in BALB/c mouse xenografted with human MHCC97H cells assessed as heart lesions at 10 mg/kg, ip qd for 22 days and measured every 2 days by H and E staining based assay", "format": "organism-based", "conditions": "in vivo, 528 h, time 22 day"}, "[19]": {"assay": "Toxicity in BALB/c mouse xenografted with human MHCC97H cells assessed as spleen lesions at 20 mg/kg, po qd for 22 days and measured every 2 days by H and E staining based assay", "format": "organism-based", "conditions": "in vivo, 528 h, time 22 day"}, "[20]": {"assay": "Toxicity in BALB/c mouse xenografted with human MHCC97H cells assessed as heart lesions at 20 mg/kg, po qd for 22 days and measured every 2 days by H and E staining based assay", "format": "organism-based", "conditions": "in vivo, 528 h, time 22 day"}, "Mus musculus [21]": {"system": "Mus musculus", "assay": "Downregulation of phosphorylated STAT3 level in BALB/c mouse tumor xenografted with human MHCC97H cells at 10 mg/kg, ip qd for 22 days and measured every 2 days by Western blotting analysis", "format": "functional, organism-based", "conditions": "time 22.0 day"}, "Mus musculus [22]": {"system": "Mus musculus", "assay": "Downregulation of phosphorylated STAT3 level in BALB/c mouse tumor xenografted with human MHCC97H cells at 20 mg/kg, po qd for 22 days and measured every 2 days by Western blotting analysis", "format": "functional, organism-based", "conditions": "time 22.0 day"}, "Mus musculus [23]": {"system": "Mus musculus", "assay": "Downregulation of c-Met protein level in BALB/c mouse tumor xenografted with human MHCC97H cells at 20 mg/kg, po qd for 22 days and measured every 2 days by Western blotting analysis", "format": "functional, organism-based", "conditions": "time 22.0 day"}, "[24]": {"assay": "AUC(0 to infinity) in Sprague-Dawley rat at 1 mg/kg, iv by LC-MS/MS method", "format": "ADME, organism-based", "conditions": "in vivo"}, "[25]": {"assay": "Mean residence time (0 to infinity) in Sprague-Dawley rat at 1 mg/kg, iv by LC-MS/MS method", "format": "ADME, organism-based", "conditions": "in vivo"}, "[26]": {"assay": "Clearance in Sprague-Dawley rat at 1 mg/kg, iv by LC-MS/MS method", "format": "ADME, organism-based", "conditions": "in vivo"}, "[27]": {"assay": "Mean residence time (0 to infinity) in Sprague-Dawley rat at 10 mg/kg, po by LC-MS/MS method", "format": "ADME, organism-based", "conditions": "in vivo"}, "[28]": {"assay": "Half-life in Sprague-Dawley rat at 10 mg/kg, po by LC-MS/MS method", "format": "ADME, organism-based", "conditions": "in vivo"}, "[29]": {"assay": "Tmax in Sprague-Dawley rat at 10 mg/kg, po by LC-MS/MS method", "format": "ADME, organism-based", "conditions": "in vivo"}, "[30]": {"assay": "Clearance in Sprague-Dawley rat at 10 mg/kg, po by LC-MS/MS method", "format": "ADME, organism-based", "conditions": "in vivo"}, "[31]": {"assay": "Oral bioavailability in Sprague-Dawley rat at 10 mg/kg by LC-MS/MS method", "format": "ADME, organism-based", "conditions": "in vivo"}, "BaF3": {"system": "BaF3", "assay": "Antiproliferative activity against mouse BaF3 cells harboring TPR-MET fusion protein incubated for 72 hrs by CellTiter-Glo reagent based assay", "format": "functional, cell-based", "conditions": "BaF3, 72 h"}},
  "note": "Calls of active or inactive are those of the source. No cut-off for these calls is given here.",
  "data": [
    {"smiles": "N#Cc1cccc(-c2ccc(=O)n(Cc3cccc(-c4ncc(OCC5CCN(CCCCCC(=O)NCC67CC8CC(CC(C8)C6)C7)CC5)cn4)c3)n2)c1", "values": [
      {"measurement": "IC50", "setting": "MHCC97H [1]", "value": 2.62, "unit": "nM"},
      {"measurement": "Activity", "setting": "[2]", "value": 84.8, "unit": "%"},
      {"measurement": "Activity", "setting": "MHCC97H [3]", "value": 15.9, "unit": "%"},
      {"measurement": "Activity", "setting": "MHCC97H [4]", "value": 77.6, "unit": "%"},
      {"measurement": "Activity", "setting": "MHCC97H [5]", "value": 14.3, "unit": "%"},
      {"measurement": "Activity", "setting": "MHCC97H [6]", "value": 79.1, "unit": "%"},
      {"measurement": "Activity", "setting": "MHCC97H [7]", "value": 13.6, "unit": "%"},
      {"measurement": "viability at 0.003 µM", "setting": "MHCC97H [8]", "value": 79.5, "unit": "%"},
      {"measurement": "Activity", "setting": "MHCC97H [9]", "value": 3.76, "unit": "%"},
      {"measurement": "Activity", "setting": "MHCC97H [10]", "value": 1.4, "unit": "%"},
      {"measurement": "viability at 0.1 µM", "setting": "MHCC97H [11]", "value": 52.7, "unit": "%"},
      {"measurement": "Activity", "setting": "MHCC97H [12]", "value": 39.9, "unit": "%"},
      {"measurement": "inhibition in vivo at 10 mg/kg", "setting": "MHCC97H [13]", "value": 61.5, "unit": "%"},
      {"measurement": "Activity", "setting": "MHCC97H [14]", "value": "Active"},
      {"measurement": "Activity", "setting": "MHCC97H [15]", "value": "Active"},
      {"measurement": "Activity", "setting": "[16]", "value": "Non-Toxic"},
      {"measurement": "Activity", "setting": "[17]", "value": "Non-Toxic"},
      {"measurement": "Activity", "setting": "[18]", "value": "Non-Toxic"},
      {"measurement": "Activity", "setting": "[19]", "value": "Non-Toxic"},
      {"measurement": "Activity", "setting": "[20]", "value": "Non-Toxic"},
      {"measurement": "Activity", "setting": "Mus musculus [21]", "value": "Active"},
      {"measurement": "Activity", "setting": "Mus musculus [22]", "value": "Active"},
      {"measurement": "Activity", "setting": "Mus musculus [23]", "value": "Active"},
      {"measurement": "AUC(0-inf)", "setting": "[24]", "value": 994, "unit": "ng·h/mL"},
      {"measurement": "MRT inf", "setting": "[25]", "value": 3.86, "unit": "h"},
      {"measurement": "clearance", "setting": "[26]", "value": 17.5, "unit": "mL/min/kg"},
      {"measurement": "MRT inf", "setting": "[27]", "value": 3.73, "unit": "h"},
      {"measurement": "half-life", "setting": "[28]", "value": 2.57, "unit": "h"},
      {"measurement": "Tmax", "setting": "[29]", "value": 1.17, "unit": "h"},
      {"measurement": "CL/F", "setting": "[30]", "value": 3310, "unit": "mL/min/kg"},
      {"measurement": "bioavailability", "setting": "[31]", "value": 0.8, "unit": "%"},
      {"measurement": "IC50", "setting": "BaF3", "value": 6.2, "unit": "nM"}
    ]}
  ]
}
